Assay results reported in paper PMC4648050, “Discovery of Inhibitors of Trypanosoma brucei by Phenotypic Screening of a Focused Protein Kinase Library” (Chemmedchem, 2015).
Like-named read-outs stand apart in the source and are kept apart here.

Legend:
MNK2 = MNK2 (Homo sapiens, UniProt Q9HBH9); assay: Kinase panel: MNK2; type: biochemical, human/mammalian; conditions: compound at 10 μM, read-out: % of activity respect of the control
Experimental: (§1) The DDU kinase-focused compound set contains lead-like scaffolds that are designed to target protein kinases; they have kinase hinge binding motifs. Four of the 1H-imidazopyrazinones were screened against a human/mammalian kinase panel at the University of Dundee (http://www.kinase-screen.mrc.ac.uk) at a concentration of 10 μM. At the time of testing the panel contained 79 mammalian kinases selected to provide a broad coverage of the mammalian kinome (∼500 kinases in the human genome).[3] None of the compounds were active against any of the kinases at 10 μM.

EF2K = EF2K (Homo sapiens, UniProt O00418); assay: Kinase panel: EF2K; type: biochemical, human/mammalian; conditions: compound at 10 μM, read-out: % of activity respect of the control
Experimental: as §1

SmMLCK = SmMLCK (Homo sapiens, UniProt Q15746); assay: Kinase panel: SmMLCK; type: biochemical, human/mammalian; conditions: compound at 10 μM, read-out: % of activity respect of the control
Experimental: as §1

MARK3 = MARK3 (Homo sapiens, UniProt P27448); assay: Kinase panel: MARK3; type: biochemical, human/mammalian; conditions: compound at 10 μM, read-out: % of activity respect of the control
Experimental: as §1

DYRK2 = target: T1, DYRK2 (Homo sapiens, UniProt Q92630); assay: Kinase panel: DYRK2; type: biochemical, human/mammalian; conditions: compound at 10 μM, read-out: % of activity respect of the control
T1 sequence (Q92630 1-601): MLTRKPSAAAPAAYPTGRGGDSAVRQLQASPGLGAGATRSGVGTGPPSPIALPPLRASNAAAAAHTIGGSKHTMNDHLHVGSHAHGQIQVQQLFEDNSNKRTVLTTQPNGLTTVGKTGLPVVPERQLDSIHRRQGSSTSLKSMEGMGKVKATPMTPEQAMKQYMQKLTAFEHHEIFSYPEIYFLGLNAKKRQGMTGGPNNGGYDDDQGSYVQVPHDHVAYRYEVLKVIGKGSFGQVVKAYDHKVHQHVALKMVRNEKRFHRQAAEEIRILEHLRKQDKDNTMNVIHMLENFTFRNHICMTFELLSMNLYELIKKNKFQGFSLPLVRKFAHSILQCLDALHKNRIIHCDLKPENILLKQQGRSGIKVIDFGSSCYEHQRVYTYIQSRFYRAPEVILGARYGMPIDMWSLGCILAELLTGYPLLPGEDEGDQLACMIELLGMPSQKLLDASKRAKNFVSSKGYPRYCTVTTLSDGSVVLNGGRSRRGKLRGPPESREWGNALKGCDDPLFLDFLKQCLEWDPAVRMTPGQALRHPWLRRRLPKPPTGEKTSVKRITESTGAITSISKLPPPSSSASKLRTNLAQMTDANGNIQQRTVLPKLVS
Experimental: as §1

PAK6 = PAK6 (Homo sapiens, UniProt Q9NQU5); assay: Kinase panel: PAK6; type: biochemical, human/mammalian; conditions: compound at 10 μM, read-out: % of activity respect of the control
Experimental: as §1

PAK4 = PAK4 (Homo sapiens, UniProt O96013); assay: Kinase panel: PAK4; type: biochemical, human/mammalian; conditions: compound at 10 μM, read-out: % of activity respect of the control
Experimental: as §1

MNK1 = MNK1 (Homo sapiens, UniProt Q9BUB5); assay: Kinase panel: MNK1; type: biochemical, human/mammalian; conditions: compound at 10 μM, read-out: % of activity respect of the control
Experimental: as §1

AMPK = assay: Kinase panel: AMPK; type: biochemical, human/mammalian; conditions: compound at 10 μM
Experimental: as §1

p38a MAPK = p38a MAPK (Homo sapiens, UniProt Q16539); assay: Kinase panel: p38a MAPK; type: biochemical, human/mammalian; conditions: compound at 10 μM, read-out: % of activity respect of the control
Experimental: as §1

MAPKAP-K2 = MAPKAP-K2 (Homo sapiens, UniProt P49137); assay: Kinase panel: MAPKAP-K2; type: biochemical, human/mammalian; conditions: compound at 10 μM, read-out: % of activity respect of the control
Experimental: as §1

SRPK1 = SRPK1 (Homo sapiens, UniProt Q96SB4); assay: Kinase panel: SRPK1; type: biochemical, human/mammalian; conditions: compound at 10 μM, read-out: % of activity respect of the control
Experimental: as §1

T. b. brucei = assay: Trypanosome proliferation assay; type: cell-based, Trypanosoma brucei brucei; conditions: geometric mean of two or more determinations, standard cell viability (resazurin) assay, read-out: EC50 T. b. brucei
Experimental: Trypanosome and MRC5 proliferation assay: Measurement of inhibition of the proliferation of MRC5 cells (human lung fibroblasts) and T. brucei bloodstream-stage cells was performed using a modification of a cell viability assay previously described.[35, 36] Compounds ([…] to 0.5 nM) were incubated with 2×10^3 cells per well in 0.2 mL of the appropriate culture medium (MEM with 10 % foetal bovine serum for MRC5 cells) in clear 96-well plates. Plates were incubated at 37 °C in the presence of 5 % CO2 for 69 h. Resazurin was then added to a final concentration of 50 μM, and plates were incubated as above for a further 4 h before being read on a BioTek Flx800 fluorescence plate reader.

DYRK1A = DYRK1A (Homo sapiens, UniProt Q13627); assay: Kinase panel: DYRK1A; type: biochemical, human/mammalian; conditions: compound at 10 μM, read-out: % of activity respect of the control
Experimental: as §1

TBK1 (DU12569) = target: T2, TBK1 (DU12569) (Homo sapiens, UniProt Q9UHD2); assay: Kinase panel: TBK1 (DU12569); type: biochemical, human/mammalian; conditions: compound at 10 μM, read-out: % of activity respect of the control
T2 sequence (Q9UHD2 1-729): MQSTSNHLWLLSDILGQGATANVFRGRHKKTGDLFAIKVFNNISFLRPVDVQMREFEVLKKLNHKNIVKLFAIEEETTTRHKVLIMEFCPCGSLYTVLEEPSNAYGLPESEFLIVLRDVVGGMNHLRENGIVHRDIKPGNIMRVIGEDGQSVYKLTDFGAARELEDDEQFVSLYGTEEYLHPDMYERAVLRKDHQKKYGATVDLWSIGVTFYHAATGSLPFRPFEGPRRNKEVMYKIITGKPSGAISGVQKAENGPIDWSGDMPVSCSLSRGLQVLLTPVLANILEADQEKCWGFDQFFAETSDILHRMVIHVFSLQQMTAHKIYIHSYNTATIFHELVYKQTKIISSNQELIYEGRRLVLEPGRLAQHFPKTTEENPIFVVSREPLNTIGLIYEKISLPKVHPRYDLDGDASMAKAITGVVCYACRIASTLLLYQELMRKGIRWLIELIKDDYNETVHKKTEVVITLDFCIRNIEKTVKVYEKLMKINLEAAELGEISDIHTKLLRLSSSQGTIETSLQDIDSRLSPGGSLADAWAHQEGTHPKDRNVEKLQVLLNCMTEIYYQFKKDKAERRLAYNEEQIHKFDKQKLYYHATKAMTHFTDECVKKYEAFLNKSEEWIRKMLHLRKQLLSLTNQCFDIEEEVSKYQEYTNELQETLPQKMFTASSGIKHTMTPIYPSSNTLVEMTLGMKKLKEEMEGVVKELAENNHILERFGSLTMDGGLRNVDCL
Experimental: as §1

MNK2, sequence (Q9HBH9 whole entry): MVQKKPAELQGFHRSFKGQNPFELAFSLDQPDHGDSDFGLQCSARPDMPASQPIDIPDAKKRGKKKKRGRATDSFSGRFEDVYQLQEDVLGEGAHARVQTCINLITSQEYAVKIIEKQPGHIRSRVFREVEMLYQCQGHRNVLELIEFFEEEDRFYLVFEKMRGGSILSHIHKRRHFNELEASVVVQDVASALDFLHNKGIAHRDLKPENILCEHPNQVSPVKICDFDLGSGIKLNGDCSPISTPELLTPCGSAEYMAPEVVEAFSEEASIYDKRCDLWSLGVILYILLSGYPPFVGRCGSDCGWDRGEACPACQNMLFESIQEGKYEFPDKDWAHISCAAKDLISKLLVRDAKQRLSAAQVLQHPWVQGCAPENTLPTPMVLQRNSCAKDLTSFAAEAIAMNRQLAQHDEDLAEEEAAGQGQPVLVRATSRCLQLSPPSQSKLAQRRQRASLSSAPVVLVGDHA
MNK1, sequence (Q9BUB5 whole entry): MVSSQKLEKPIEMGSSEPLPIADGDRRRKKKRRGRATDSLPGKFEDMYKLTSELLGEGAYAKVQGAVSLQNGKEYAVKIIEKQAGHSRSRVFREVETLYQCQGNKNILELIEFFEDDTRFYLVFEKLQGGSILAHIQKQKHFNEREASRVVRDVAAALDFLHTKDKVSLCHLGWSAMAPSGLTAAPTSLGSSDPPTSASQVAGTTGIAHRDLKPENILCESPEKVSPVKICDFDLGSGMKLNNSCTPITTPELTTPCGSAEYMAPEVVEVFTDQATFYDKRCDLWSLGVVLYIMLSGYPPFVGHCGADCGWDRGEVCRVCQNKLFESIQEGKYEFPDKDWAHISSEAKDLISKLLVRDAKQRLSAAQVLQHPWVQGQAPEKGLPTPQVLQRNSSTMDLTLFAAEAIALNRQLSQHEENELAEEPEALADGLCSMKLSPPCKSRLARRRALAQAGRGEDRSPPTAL
MARK3, sequence (P27448 whole entry): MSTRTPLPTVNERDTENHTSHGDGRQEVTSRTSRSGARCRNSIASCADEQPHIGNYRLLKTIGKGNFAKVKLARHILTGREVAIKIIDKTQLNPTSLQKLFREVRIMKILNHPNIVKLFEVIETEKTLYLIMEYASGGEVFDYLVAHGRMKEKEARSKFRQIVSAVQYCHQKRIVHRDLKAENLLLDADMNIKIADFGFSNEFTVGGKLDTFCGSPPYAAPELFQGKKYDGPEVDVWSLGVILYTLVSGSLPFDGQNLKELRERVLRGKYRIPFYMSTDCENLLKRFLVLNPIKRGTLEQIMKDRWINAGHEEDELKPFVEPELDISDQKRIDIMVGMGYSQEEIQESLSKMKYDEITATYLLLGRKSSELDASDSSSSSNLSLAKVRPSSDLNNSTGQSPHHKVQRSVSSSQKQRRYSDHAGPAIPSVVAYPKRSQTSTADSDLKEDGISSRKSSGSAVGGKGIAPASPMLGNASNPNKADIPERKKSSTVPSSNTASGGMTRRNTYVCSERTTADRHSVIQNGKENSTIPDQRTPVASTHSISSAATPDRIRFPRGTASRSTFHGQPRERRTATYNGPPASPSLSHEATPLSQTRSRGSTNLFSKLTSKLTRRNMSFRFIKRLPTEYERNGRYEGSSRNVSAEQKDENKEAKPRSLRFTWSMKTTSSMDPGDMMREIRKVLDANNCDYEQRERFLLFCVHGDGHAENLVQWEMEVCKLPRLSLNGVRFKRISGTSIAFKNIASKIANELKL
MAPKAP-K2, sequence (P49137 whole entry): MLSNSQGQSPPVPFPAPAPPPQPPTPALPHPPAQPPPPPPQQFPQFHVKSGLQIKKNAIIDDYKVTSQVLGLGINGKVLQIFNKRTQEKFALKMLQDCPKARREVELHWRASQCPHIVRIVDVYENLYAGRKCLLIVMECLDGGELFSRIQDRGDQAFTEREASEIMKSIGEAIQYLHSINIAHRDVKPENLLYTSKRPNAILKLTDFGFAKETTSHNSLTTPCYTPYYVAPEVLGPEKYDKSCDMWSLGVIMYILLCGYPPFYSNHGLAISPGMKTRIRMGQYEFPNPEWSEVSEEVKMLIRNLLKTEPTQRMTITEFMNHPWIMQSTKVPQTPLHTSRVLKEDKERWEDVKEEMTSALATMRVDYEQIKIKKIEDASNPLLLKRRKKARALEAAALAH
PAK4, sequence (O96013 whole entry): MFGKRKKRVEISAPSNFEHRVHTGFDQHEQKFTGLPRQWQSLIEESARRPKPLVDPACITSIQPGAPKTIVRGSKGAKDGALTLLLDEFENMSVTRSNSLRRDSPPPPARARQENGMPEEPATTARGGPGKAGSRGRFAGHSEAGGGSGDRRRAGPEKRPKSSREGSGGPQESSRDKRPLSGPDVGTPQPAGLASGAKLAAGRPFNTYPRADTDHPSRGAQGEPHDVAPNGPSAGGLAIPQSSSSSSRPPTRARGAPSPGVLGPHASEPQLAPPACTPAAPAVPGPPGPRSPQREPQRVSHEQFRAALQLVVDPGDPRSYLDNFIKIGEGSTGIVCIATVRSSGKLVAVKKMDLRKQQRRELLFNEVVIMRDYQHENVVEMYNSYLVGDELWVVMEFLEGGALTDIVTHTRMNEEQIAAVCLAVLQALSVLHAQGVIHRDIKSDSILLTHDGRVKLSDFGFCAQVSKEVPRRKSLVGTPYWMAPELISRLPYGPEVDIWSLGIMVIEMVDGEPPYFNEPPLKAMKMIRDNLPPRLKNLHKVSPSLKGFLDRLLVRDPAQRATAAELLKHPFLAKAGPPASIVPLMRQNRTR
SmMLCK, sequence (Q15746 923-1914): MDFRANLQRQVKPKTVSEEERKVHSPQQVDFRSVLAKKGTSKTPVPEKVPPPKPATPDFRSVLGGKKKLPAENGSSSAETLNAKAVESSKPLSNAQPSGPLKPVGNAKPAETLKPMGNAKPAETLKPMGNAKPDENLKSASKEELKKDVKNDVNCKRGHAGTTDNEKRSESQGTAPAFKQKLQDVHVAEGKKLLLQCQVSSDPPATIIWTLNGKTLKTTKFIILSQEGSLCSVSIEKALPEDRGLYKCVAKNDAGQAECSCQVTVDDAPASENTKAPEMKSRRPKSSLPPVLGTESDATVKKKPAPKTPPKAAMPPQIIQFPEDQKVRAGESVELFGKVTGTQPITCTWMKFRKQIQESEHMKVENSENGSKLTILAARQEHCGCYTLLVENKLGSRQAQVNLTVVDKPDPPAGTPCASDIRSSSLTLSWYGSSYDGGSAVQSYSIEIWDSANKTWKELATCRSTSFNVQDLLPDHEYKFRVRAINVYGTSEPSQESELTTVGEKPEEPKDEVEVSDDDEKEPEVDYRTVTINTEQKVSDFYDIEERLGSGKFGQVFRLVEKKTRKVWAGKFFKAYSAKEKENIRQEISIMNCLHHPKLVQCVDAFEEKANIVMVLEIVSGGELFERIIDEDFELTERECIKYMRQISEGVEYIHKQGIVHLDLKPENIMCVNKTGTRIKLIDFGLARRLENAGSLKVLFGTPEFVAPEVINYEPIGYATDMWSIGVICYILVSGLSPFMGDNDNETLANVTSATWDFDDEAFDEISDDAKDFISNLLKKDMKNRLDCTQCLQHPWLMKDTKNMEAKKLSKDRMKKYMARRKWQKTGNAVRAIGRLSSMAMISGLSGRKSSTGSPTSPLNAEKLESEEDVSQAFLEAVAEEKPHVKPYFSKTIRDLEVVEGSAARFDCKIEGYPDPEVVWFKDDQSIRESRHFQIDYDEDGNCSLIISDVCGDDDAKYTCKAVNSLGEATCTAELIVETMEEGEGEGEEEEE
SRPK1, sequence (Q96SB4 whole entry): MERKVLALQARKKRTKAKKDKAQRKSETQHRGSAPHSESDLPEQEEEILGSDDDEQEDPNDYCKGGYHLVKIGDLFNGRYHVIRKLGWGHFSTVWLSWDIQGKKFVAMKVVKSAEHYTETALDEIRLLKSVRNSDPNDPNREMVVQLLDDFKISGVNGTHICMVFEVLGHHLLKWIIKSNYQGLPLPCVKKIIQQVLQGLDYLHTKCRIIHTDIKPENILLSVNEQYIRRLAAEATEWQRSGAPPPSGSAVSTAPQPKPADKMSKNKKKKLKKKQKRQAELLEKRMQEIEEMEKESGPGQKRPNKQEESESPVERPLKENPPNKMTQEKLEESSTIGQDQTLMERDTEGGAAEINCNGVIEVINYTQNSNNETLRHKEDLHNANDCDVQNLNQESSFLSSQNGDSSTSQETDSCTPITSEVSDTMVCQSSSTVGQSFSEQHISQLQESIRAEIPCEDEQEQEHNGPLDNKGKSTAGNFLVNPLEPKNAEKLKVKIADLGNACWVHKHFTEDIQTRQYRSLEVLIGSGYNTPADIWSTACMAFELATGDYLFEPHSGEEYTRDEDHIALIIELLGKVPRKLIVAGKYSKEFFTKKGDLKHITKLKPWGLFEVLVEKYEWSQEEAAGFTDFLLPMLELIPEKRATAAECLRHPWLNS
p38a MAPK, sequence (Q16539 whole entry): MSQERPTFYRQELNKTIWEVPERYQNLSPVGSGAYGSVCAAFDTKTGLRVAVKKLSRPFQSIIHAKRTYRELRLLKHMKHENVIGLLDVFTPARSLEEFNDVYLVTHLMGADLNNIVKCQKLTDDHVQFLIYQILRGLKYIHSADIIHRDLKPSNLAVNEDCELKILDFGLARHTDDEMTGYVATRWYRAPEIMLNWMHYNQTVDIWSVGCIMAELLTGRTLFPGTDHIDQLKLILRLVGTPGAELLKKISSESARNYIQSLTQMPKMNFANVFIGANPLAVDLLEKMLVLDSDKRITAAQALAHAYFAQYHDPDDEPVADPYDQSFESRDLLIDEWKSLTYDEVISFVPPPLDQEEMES

| Structure (SMILES) | remaining activity at 10 µM (MNK2) [%] | remaining activity at 10 µM (EF2K) [%] | remaining activity at 10 µM (SmMLCK) [%] | remaining activity at 10 µM (MARK3) [%] | remaining activity at 10 µM (DYRK2) [%] | remaining activity at 10 µM (PAK6) [%] | remaining activity at 10 µM (PAK4) [%] | remaining activity at 10 µM (MNK1) [%] | % of activity respect of the control (AMPK) [%] | remaining activity at 10 µM (p38a MAPK) [%] | remaining activity at 10 µM (MAPKAP-K2) [%] | remaining activity at 10 µM (SRPK1) [%] | EC50 (T. b. brucei; Trypanosoma brucei) [nM] | remaining activity at 10 µM (DYRK1A) [%] | remaining activity at 10 µM (TBK1 (DU12569)) [%] | EC50 (T. b. brucei) [nM] |
| --- | --- | --- | --- | --- | --- | --- | --- | --- | --- | --- | --- | --- | --- | --- | --- | --- |
| CC(c1ccccc1)n1c(=O)[nH]c2ncc(-c3ccc(F)cc3)nc21 (centres unmarked) [Compound 1] | 106 | 93 | 80 | 110 | 100 | 89 | 101 | 83 | 97 | 88 | 90 | 80 | 80 | 79 | 95 |  |
| O=c1[nH]c2ncc(-c3ccc(F)cc3)nc2n1CC1CC1 [Compound 10] | 99 | 92 | 74 | 97 | 94 | 98 | 106 | 93 | 94 | 87 | 104 | 89 | 300 | 113 | 86 |  |
| O=c1[nH]c2ncc(-c3ccc(F)cc3)nc2n1C1CCCCC1 [Compound 12, 1-Cyclohexyl-6-(4-fluorophenyl)-1H-imidazo[4,5-b]pyrazin-2(3H)-one] | 103 | 98 | 89 | 98 | 99 | 106 | 103 | 93 | 100 | 86 | 101 | 88 | 30 | 93 | 90 |  |
| C[C@H](c1ccccc1)n1c(=O)[nH]c2ncc(-c3ccccc3)nc21 [Compound 14, (R)-6-Phenyl-1-(1-phenylethyl)-1H-imidazo[4,5-b]pyrazin-2(3H)-one] | 97 | 79 | 64 | 100 | 89 | 88 | 86 | 76 | 95 | 88 | 84 | 75 | 100 | 85 | 78 |  |
| O=c1[nH]c2ncc(-c3ccccc3CO)nc2n1C1CCCCC1 [Compound 28] |  |  |  |  |  |  |  |  |  |  |  |  | 50 |  |  | 46 |
